Source: ChEMBL document CHEMBL1144482, “Design, synthesis, biochemical evaluation and antimycobacterial action of phosphonate inhibitors of antigen 85C, a crucial enzyme involved in biosynthesis of the mycobacterial cell wall” (Eur J Med Chem, 2007)
≈ marks a conversion by molar mass, not a printed value. Calls of active or inactive are those of the source. The calls are words filed in the database; no cut-off is given here.

Legend:
[1] = target: Diacylglycerol acyltransferase/mycolyltransferase Ag85C (Mycobacterium tuberculosis, UniProt P9WQN9); experiment: Inhibition of Mycobacterium tuberculosis recombinant antigen 85C mycolyltransferase
Mycobacterium avium = experiment: Growth inhibition of Mycobacterium avium 2447; assay type: functional

Diacylglycerol acyltransferase/mycolyltransferase Ag85C, sequence (P9WQN9 whole entry): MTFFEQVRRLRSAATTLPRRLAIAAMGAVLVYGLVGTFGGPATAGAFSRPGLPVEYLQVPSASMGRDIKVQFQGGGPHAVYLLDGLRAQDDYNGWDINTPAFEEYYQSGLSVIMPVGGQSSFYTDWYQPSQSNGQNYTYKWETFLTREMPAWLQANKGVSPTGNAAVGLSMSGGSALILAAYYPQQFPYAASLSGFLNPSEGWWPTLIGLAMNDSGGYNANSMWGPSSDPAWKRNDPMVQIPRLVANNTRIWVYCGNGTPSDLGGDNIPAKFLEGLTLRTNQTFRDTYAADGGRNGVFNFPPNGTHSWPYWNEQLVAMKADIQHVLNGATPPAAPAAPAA

| Compound | IC50 [1] [µM] | Activity (Mycobacterium avium) | MIC (Mycobacterium avium) [µg/mL] |
| --- | --- | --- | --- |
| CCCCCCCCCCCCCCP(=O)(OCC)OCc1ccccc1Oc1ccccc1 (stereo not drawn) | 862 |  |  |
| CCCCP(=O)(OCC)OCN1C(=O)c2ccccc2C1=O (stereo not drawn) |  | inactive |  |
| CCCCP(=O)(OCC)OCCN1C(=O)c2ccccc2C1=O (stereo not drawn) |  |  | 406 (≈ 1200 µM) |
| CCCCCCCCCP(=O)(OCC)OCc1ccccc1Oc1ccccc1 (stereo not drawn) | 14.8 |  | 188 (≈ 450 µM) |
| CC[C@H]1OC(=O)[C@H](C)[C@@H](O[C@H]2C[C@@](C)(OC)[C@@H](O)[C@H](C)O2)[C@H](C)[C@@H](O[C@@H]2O[C@H](C)C[C@H](N(C)C)[C@H]2O)[C@](C)(OC)C[C@@H](C)C(=O)[C@H](C)[C@@H](O)[C@]1(C)O [CLARITHROMYCIN] |  |  | 0.2 (≈ 0.267 µM) |
| CCCCCCCP(=O)(OCC)OCc1ccccc1Oc1ccccc1 (stereo not drawn) | 21 |  | 319 (≈ 817 µM) |
| CCOP(=O)(O)CCc1ccccc1 | 225 |  |  |
| CCOP(=O)(O)CCCCN1C(=O)c2ccccc2C1=O | 110 |  |  |
| CCCCCCP(=O)(OCC)OCc1ccccc1Oc1ccccc1 (stereo not drawn) | 42.6 |  | 260 (≈ 690 µM) |
| CCCCP(=O)(OCC)OCc1ccccc1Oc1ccccc1 (stereo not drawn) | 2 |  | 249 (≈ 714 µM) |
| CCCCCCCCCP(=O)(OCC)OCCN1C(=O)c2ccccc2C1=O (stereo not drawn) |  | inactive |  |
| CCCCCCP(=O)(OCC)OCc1cc(OC)c(OC)c(OC)c1 (stereo not drawn) | 102 |  |  |
| CCCCCCCCCP(=O)(OCC)OCN1C(=O)c2ccccc2C1=O (stereo not drawn) |  |  | 84.5 (≈ 214 µM) |
| CCCCCCCP(=O)(OCC)OCN1C(=O)c2ccccc2C1=O (stereo not drawn) |  | inactive |  |
